Test results from patent publication US20240002425A1, “NOVEL AMINOALKYL GLUCOSAMINIDE 4-PHOSPHATE DERIVATIVE” (DAIICHI SANKYO COMPANY, LIMITED, priority 2020, published 2024).

Key:
human TLR4 = human TLR4 (Homo sapiens, UniProt O00206+Q9Y6Y9); experiment: Human TLR4 activating effect (HEK-Blue Human TLR4 Cells, SEAP reporter); assay type: cell-based; settings: 24 hours, SEAP Protein concentration, read-out: EC50 (ng/ml) (converted)
Experimental: The human TLR4 activating effect was studied using the compounds described in Examples 1 to 17 and monophosphoryl lipid A as Comparative Example A.
Triethanolamine was dissolved at 0.5% (v/v) in injectable distilled water to prepare an aqueous triethanolamine solution. 1 mg of each test drug was dissolved in 0.98 mL of the aqueous triethanolamine solution, and pH of the solution was then adjusted to 7.2 to 7.4 by the addition of 20 μL of 1 M HCl to prepare a 1 mg/mL solution. A dilution series of the test drug was prepared using a medium [DMEM (Nacalai Tesque, Inc.), 10% FBS (Sigma-Aldrich Co. LLC), 50 U/mL penicillin-50 μg/mL streptomycin (Thermo Fisher Scientific Inc.), 1×HEK-Blue Selection (InvivoGen), and 100 μg/mL Normocin (InvivoGen)]. 2×10^5 cells/mL HEK-Blue™ Human TLR4 Cells (InvivoGen) were inoculated to each well of a 96-well microplate for tissue culture (Iwaki), then treated with the test drug, and cultured at 37° C. for 24 hours under 5% CO2. The cells thus cultured were centrifuged at 400×g at 4° C. for 3 minutes. Recombinant SEAP Protein (InvivoGen) was used for a calibration curve. After addition of 180 μL of QUANTI-Blue (InvivoGen) to each well of 96 Well TC-Treated Microplates (Corning, Inc.), 20 μL each of the cell culture supernatant and a standard diluting solution was added to each well, and the plate was left standing at 37° C. for 4 hours. After reaction, absorbance (wavelength: 655 nm) was measured using a microplate reader (PerkinElmer, Inc., EnSpire), and a SEAP Protein concentration was calculated from the calibration curve and used as an index for TLR4 agonist activity. A drug concentration that induced reaction corresponding to 50% of the maximum reaction was calculated as EC50 (ng/mL) from a linear expression using two drug concentrations between which the drug concentration that induced reaction corresponding to 50% of the maximum reaction in each experiment was positioned, and measured values thereof.

[1] = test system: various allergens (Japanese cedar pollen, mite, ragweed, timothy, peanut, milk); experiment: Immunostimulatory effect on various allergens by sublingual administration (allergen-specific IgG titer); assay type: in vivo, mouse; settings: allergen-sensitized mice, sublingual with allergen, up to 12 weeks; all the allergens; compared with allergen alone
Experimental: The compound described in Example 2(2e) was used to study its immunostimulatory effect on various allergens by sublingual administration.
Japanese cedar pollen antigen extracts were prepared by treating Japanese cedar pollen (Yamizo Pollen Study Group) with a solution containing 0.125 M NaHCO3 and 0.5 M NaCl for 24 hours (4° C.), and then insoluble matter was removed by filtration. The concentration of Cry j 1 contained in the extracts was measured, and the extracts were diluted into 12.5 μg/mL (10000 JAU/mL). Allergen scratch extracts (Torii Pharmaceutical Co., Ltd.) were used as mite, ragweed, timothy, peanut, and milk. Allergen sensitization was performed by intramuscularly administering the allergen (20 μL) to the mouse femoral region 1 week before the start of sublingual administration. The allergen scratch extracts of mite, ragweed, timothy, peanut, or milk were diluted 10-fold with PBS and used in allergen sensitization. Sublingual administration was started from 1 week after sensitization. […]
Each allergen was added at 25 μL/well (Japanese cedar pollen, 1 μg Cry j 1/mL; mite, ragweed, timothy, peanut, and milk, 1:1000 diluted) to a plate for ELISA, which was then left standing overnight at 4° C. […] Then, 30 μL of a TMB stop solution was added to each well, and absorbance at 450 nm was measured. […]

SARS-CoV-2 RBD = settings: mouse, in vivo
[2] = test system: Japanese cedar pollen antigen (Cry j 1); experiment: Immunostimulatory effect on Japanese cedar pollen antigen by sublingual administration (anti-Cry j 1 IgG or IgA); assay type: in vivo, mouse; settings: sublingual with Japanese cedar pollen antigen
Experimental: The compound described in Example 24 was used to study its immunostimulatory effect on a Japanese cedar pollen antigen by sublingual administration.
Allergen sensitization was performed by subcutaneously administering 50 μL of Japanese cedar pollen antigen extracts (allergen scratch extracts “Torii” Japanese cedar pollen, Torii Pharmaceutical Co., Ltd.) to the mouse tail root 3 and 1 weeks before the start of sublingual administration. Blood was collected 4 days after the second sensitization, and anti-Cry j 1 IgG was measured in accordance with the subsequent section. Mice were grouped such that their measured values were evenly distributed among the groups. Sublingual administration (sublingual allergen immunotherapy model) was started from 3 days thereafter.
The antigen used was a Japanese cedar pollen antigen (5000 JAU CEDARCURE®, Torii Pharmaceutical Co., Ltd.) dissolved in 100 μL of PBS. The compound of Example 24 was dissolved in injectable water (Otsuka Pharmaceutical Co., Ltd.) to prepare a 5 mg/mL solution. The antigen and the compound of Example 24 were mixed in equal amounts immediately before administration.
Each mouse was allowed to refrain from eating and drinking from 1 hour before sublingual administration. […]
25 μL of 10 μg/mL ImmunoPure Streptavidin (Thermo Fisher Scientific Inc., Cat No. 21125) was added to each well of 96 Well Micro Plate (Corning, Inc., Cat No. 3690), which was then left standing overnight at 4° C. […] The plate was left standing at room temperature for 10 minutes, and 30 μL of TMB Stop Solution was then added to each well, followed by the measurement of absorbance at 450 nm.
Positive serum was used as a standard specimen of serum, and anti-Cry j 1 IgG or IgA contained therein was set to 1000 units/mL. […] An evaluation specimen was diluted 1000-fold with an ELISA solution and measured, and the unit value of anti-Cry j 1 IgG or IgA in the evaluation specimen was determined using the calibration curve. […]

[3] = test system: cervical lymph node immune cells; experiment: Cry j 1-specific cell-mediated immunity assay (cervical lymph node cells); assay type: in vivo, mouse; design: IFN-7 produced by Cry j 1 stimulation / IL-4 produced by Cry j 1 stimulation: unit not given here; settings: cervical lymph node cells after sublingual administration with Japanese cedar pollen antigen
Experimental: Cervical lymph node was collected, then pooled for each group, and ground in PBS (1% BSA). The resultant was passed through a 70 μm strainer. […] Cells were recovered with RPMI/FBS/ps, and the number of cells was prepared to 2×5×10^6 cells/mL.

[4] = test system: mast cell degranulation reaction mediated by anti-Cry j 1 IgE; experiment: Suppression of mast cell degranulation by immune serum-derived IgG; assay type: in vivo, mouse; settings: IgG from serum of SLIT mice, 200 ng/mL Cry j 1 stimulation; vs No-SLIT and Japanese Cedar Pollen SLIT groups (FIG. 17)
Experimental: IgG was purified from 200 μL of serum of each mouse individual of the allergen immunotherapy model in accordance with the protocol of Protein G HP spin trap (Cytiva, 28-9031-34). The solvent in the purified IgG was replaced with 50 μL of Tyrode's solution using Vivaspin 500, 10 kDa MWCO Polyethersulfone (Cytiva, 28-9322-25). Cry j 1 (2×10×200 ng/mL, 1.5 μL, Tyrode's solution) was added to the purified IgG (13.5 μL, Tyrode's solution), and the mixture was left standing at room temperature for 1 hour in the dark. The mast cells sensitized with anti-Cry j 1 IgE were treated with 10 μL of this specimen as a test substance, and the amount of the mast cell degranulation was measured (final concentration: 200 ng/mL, Cry j 1 stimulation).

Sequence of human TLR4 (O00206 24-839): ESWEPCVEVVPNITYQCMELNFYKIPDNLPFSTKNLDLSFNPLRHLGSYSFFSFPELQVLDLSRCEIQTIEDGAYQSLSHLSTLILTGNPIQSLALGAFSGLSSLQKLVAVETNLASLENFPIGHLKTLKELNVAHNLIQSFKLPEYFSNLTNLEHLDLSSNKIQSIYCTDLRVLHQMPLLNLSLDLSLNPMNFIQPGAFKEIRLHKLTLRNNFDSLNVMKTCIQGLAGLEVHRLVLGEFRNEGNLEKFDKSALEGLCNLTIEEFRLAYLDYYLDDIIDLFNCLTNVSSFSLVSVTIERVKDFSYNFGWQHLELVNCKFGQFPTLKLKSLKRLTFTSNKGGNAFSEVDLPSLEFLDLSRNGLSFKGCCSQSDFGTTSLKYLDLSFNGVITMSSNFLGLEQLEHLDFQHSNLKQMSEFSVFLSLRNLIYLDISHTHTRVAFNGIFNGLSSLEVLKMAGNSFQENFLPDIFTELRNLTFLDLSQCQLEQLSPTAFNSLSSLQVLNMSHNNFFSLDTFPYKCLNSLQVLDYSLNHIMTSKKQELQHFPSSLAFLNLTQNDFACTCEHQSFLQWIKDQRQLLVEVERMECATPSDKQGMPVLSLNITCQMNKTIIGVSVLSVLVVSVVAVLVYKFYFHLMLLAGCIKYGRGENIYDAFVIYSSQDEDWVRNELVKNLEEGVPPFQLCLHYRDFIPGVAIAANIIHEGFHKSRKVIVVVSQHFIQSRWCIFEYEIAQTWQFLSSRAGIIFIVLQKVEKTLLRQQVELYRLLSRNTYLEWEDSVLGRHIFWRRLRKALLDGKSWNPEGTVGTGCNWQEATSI
Sequence of human TLR4 (Q9Y6Y9 17-160 limits assumed): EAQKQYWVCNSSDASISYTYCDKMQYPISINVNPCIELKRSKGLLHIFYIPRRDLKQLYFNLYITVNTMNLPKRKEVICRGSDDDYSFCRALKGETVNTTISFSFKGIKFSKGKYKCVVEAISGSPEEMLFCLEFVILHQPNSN

SMILES | EC50 (human TLR4) | allergen-specific IgG titer in blood [1] | anti-RBD IgA in blood (SARS-CoV-2 RBD) | anti-RBD IgA in nasal wash (SARS-CoV-2 RBD) | anti-RBD IgG in blood (SARS-CoV-2 RBD) | anti-Cry j 1 IgA in nasal wash ([2]; 5 weeks (FIG. 11)) | anti-Cry j 1 IgG in serum ([2]; vs No-SLIT and Japanese Cedar Pollen SLIT groups (FIG. 9)) | anti-Cry j 1 IgA in serum ([2]; vs No-SLIT and Japanese Cedar Pollen SLIT groups (FIG. 10)) | IL-10 produced by Cry j 1 stimulation ([3]; 44 hours culture (FIG. 12)) | IFN-7 produced by Cry j 1 stimulation ([3]; 44 hours culture (FIG. 13)) | IL-4 produced by Cry j 1 stimulation ([3]; 44 hours culture (FIG. 14)) | mast cell degranulation with IgG purified from mouse serum [4]
CCCCCCCCCCC[C@H](CC(=O)N[C@@H](CO[C@@H]1O[C@H](CO[C@]2(C(=O)O)C[C@@H](O)[C@@H](O)[C@@H]([C@H](O)CO)O2)[C@@H](OP(=O)(O)O)[C@H](OC(=O)C[C@@H](CCCCCCCCCCC)OC(=O)CCCCCCCCC)[C@H]1NC(=O)C[C@@H](CCCCCCCCCCC)OC(=O)CCCCCCCCC)CC(=O)O)OC(=O)CCCCCCCCC [Example 2(2e), Ammonium (3R)-3-{[(3R)-3-(decanoyloxy)tetradecanoyl]amino}-4-({3-O-[(3R)-3-(decanoyloxy)tetradecanoyl]-2-{[(3R)-3-(decanoyloxy)tetradecanoyl]amino}-2-deoxy-6-O-(3-deoxy-α-D-manno-oct-2-ulopyranonosyl)-4-O-phosphono-β-D-glucopyranosyl}oxy)butanoate] | 0.0499 nM | markedly higher | markedly high | induced at a high level | markedly high | – | – | – | – | – | – | –
CCCCCCCCCCC[C@H](CC(=O)N[C@@H](CO[C@@H]1O[C@H](CO[C@]2(C(=O)O)C[C@@H](O)[C@@H](O)[C@@H]([C@H](O)CO)O2)[C@@H](OP(=O)(O)O)[C@H](OC(=O)C[C@@H](CCCCCCCCCCC)OC(=O)CCCCCCCCC)[C@H]1NC(=O)C[C@@H](CCCCCCCCCCC)OC(=O)CCCCCCCCC)CC(=O)O)OC(=O)CCCCCCCCC.CNC[C@H](O)[C@@H](O)[C@H](O)[C@H](O)CO.CNC[C@H](O)[C@@H](O)[C@H](O)[C@H](O)CO.CNC[C@H](O)[C@@H](O)[C@H](O)[C@H](O)CO.CNC[C@H](O)[C@@H](O)[C@H](O)[C@H](O)CO [Example 24, Tetrameglumine (3R)-3-{[(3R)-3-(decanoyloxy)tetradecanoyl]amino}-4-({3-O-[(3R)-3-(decanoyloxy)tetradecanoyl]-2-{[(3R)-3-(decanoyloxy)tetradecanoyl]amino}-2-deoxy-6-O-(3-deoxy-α-D-manno-oct-2-ulopyranonosyl)-4-O-phosphono-β-D-glucopyranosyl}oxy)butanoate] | – | – | – | – | – | induced at a high level | induced at a higher level | induced at a higher level | strongly induced | ≤ 9.77 | ≤ 9.77 | suppressed
